Entries after “also recorded” stand apart in the source; their conditions may differ. Marks after values point to notes of the source that are not given here.
Assays:
central nervous system = assay: Neurofunctional study (FOB, motor activity); format: in vivo, Sprague-Dawley rat
[1] = test system: diluted whole blood stimulated with LPS; assay: Cytokine production from diluted whole blood stimulated with LPS; format: cell-based
pPRAS40 = pPRAS40 level in HH, MJ, HuT78 cells; format: cell-based; details: FIG. 33, as compared to GS-1101
CLL/SLL = assay: Clinical activity in CLL/SLL patients; format: in vivo, human
[2] = in vivo rat micronucleus assay
[3] = embryo/fetal developmental toxicity study in rats; details: female, rat, in vivo, 35 mg/kg/day; pregnant rats, last day of dosing; read-out: mean AUCO24 hr at the NOAEL
[4] = clinical study in healthy adult subjects: pharmacokinetics; format: in vivo, human
hematologic malignancies = assay: Phase 1 dose-escalation study in hematologic malignancies: tumor response; format: in vivo, human; details: for responses: 8, 15 and 25 mg BID
PI3K γ = PI3K γ (Homo sapiens, UniProt P48736); assay: PK/PD: plasma concentration versus PI3K-γ inhibition; format: in vivo; details: PK/PD in patients
SU-DHL-4 = assay: cellular growth inhibition assay (72 hour CTG), DLBCL; format: cell-based; details: SU-DHL-4 (GCB)
OCI-LY-8 = assay: cellular growth inhibition assay, DLBCL; format: cell-based
[5] = test system: pAKT, pPRAS40 and pS6 in SU-DHL-6, SU-DHL-4 and Ri-1; assay: western blot of PI3K pathway proteins in DLBCL cell lines; format: cell-based
Protocol: At 1 hour after the treatment, levels of various proteins were assessed by western blot, the results of which are shown in FIG. 31.
Activation of the PI3K pathway is an important component of normal B-cell receptor (BCR) signaling and has been implicated in the pathogenesis of DLBCL. […] There was rapid modulation of phospho-AKT and phospho-PRAS40 by 30 minutes, whereas modulation of phospho-S6 was not detected until after 8 hours.

[6] = test system: PTEN wildtype cell lines (Molt-13 and Molt-16); assay: growth inhibition of T-ALL cells; format: cell-based
LPN049 and LPN236 = assay: MTT assay, PTEN deficient transgenic T-ALL model cell lines; format: cell-based, murine
[7] = test system: CD38/CD69 positive CLL cells; assay: phosphospecific flow cytometry of circulating CLL cells in patients; format: in vivo, human; details: 25 mg BID
Excerpt: In order to characterize the surface phenotype of the cells present in CLL patients, antibodies against, among others, CD38 and CD69 were included in the panel, and the samples were subjected to phosphor-specific flow cytometry.

[8] = time-course in selected DLBCL cell lines

Chain of PI3K γ (P48736 whole entry): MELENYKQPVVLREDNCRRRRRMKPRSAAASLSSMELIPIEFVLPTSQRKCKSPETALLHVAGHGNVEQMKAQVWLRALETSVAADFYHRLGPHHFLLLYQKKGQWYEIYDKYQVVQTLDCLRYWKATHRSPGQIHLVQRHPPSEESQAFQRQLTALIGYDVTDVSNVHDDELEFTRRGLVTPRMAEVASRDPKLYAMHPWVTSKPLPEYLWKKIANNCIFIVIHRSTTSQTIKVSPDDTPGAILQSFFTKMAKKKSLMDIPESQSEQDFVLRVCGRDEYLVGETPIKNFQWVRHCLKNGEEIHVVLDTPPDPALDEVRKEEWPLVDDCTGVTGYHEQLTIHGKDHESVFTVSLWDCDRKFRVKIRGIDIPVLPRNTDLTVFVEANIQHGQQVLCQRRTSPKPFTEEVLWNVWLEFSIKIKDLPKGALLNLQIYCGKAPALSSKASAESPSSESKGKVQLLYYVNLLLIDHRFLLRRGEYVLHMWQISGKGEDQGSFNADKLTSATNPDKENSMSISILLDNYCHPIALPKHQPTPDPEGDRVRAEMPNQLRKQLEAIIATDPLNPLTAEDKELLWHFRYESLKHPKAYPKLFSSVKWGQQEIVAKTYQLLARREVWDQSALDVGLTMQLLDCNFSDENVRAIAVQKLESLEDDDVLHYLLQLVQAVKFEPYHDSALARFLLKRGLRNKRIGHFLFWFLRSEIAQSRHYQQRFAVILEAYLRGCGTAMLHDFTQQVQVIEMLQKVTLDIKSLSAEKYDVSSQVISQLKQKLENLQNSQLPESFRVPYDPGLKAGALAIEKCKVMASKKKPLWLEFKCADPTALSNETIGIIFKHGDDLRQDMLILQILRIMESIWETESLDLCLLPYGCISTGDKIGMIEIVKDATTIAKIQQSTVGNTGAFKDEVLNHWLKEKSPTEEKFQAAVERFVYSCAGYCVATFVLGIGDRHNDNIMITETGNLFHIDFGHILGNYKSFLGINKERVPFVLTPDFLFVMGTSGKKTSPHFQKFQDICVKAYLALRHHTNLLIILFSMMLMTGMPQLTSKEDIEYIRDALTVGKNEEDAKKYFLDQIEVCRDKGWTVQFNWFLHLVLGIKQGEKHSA

With `C[C@H](Nc1ncnc2[nH]cnc12)c1cc2cccc(Cl)c2c(=O)n1-c1ccccc1` [Compound 292] the locomotor activity (central nervous system; 2 h after a 350 mg/kg dose) was “Significant decreases”, the “effects on the central nervous system” value (central nervous system; dose levels ≦50 mg/kg) was “No effects” and the TNF-α production ([1]; FIG. 14A) was “inhibits”. The IL-10 production ([1]; FIG. 14B) was “inhibits”, the “level of pPRAS40” value (pPRAS40) was “decrease” and the clinical activity (CLL/SLL) was “rapid onset of clinical activity”. For the same compound, the “direct adverse effect in micronucleus assay” value [2] was “no direct adverse effect”, the AUC [3] was 62200 ng·h/mL and the accumulation ([4]; 14 days of Q12 h oral administration) was “less than 2 fold”. The exposure versus dose ([4]; across the dose ranges evaluated) was “increased proportionally to dose”, the “responders with response by first assessment (within about 2 months)” value (hematologic malignancies; B cell lymphoma, 16 out of 18 responders) was 89% and the “Time to Response in Months Median (range)” value (hematologic malignancies; CLL/SLL (11 evaluable)) was 2.9 (1.8, 5.6) Months. The “Best Observed Response: SD” value (hematologic malignancies; CLL/SLL (11 evaluable), four nodal responses) was 4 ^c n, the responses (hematologic malignancies; CLL/SLL) was 2/3 and the “Median Time to Response in Months (range)” value (from here on “Median Time to Response”) (hematologic malignancies; CTCL (T/E 10/4)) was 1.7 (—) ^ Months. The “Time to Response in Months Median (range)” value (hematologic malignancies; HL (2 evaluable)) was 1.7 (1.7, 1.7) Months, the “Median Time to Rsp in Months (Range)” value (hematologic malignancies; HL (T/E 3/3)) was 1.7 Months and the “Time to Response in Months Median (range)” value (hematologic malignancies; MCL (3 evaluable)) was 1.9 (1.9, 1.9) Months. The “Median Time to Rsp in Months (Range)” value (hematologic malignancies; MCL (T/E 9/6)) was 1.8 (1.6-1.9) Months, the “Median Time to Response” value (hematologic malignancies; PTCL (T/E 7/5)) was 2.3 (1.9-2.7) Months and the “patients with at least 50% tumor response (CT scans)” value (hematologic malignancies; T cell lymphoma (2 PTCL and 1 CTCL)) was 33%. For the same compound, the “Time to Response in Months Median (range)” value (hematologic malignancies; T-Cell Lymphoma (6 evaluable)) was 2.4 (1.8, 3.1) Months, the “Median Time to Response” value (hematologic malignancies; TCL Total (T/E 17/9)) was 1.9 (1.7-2.7) Months and the “Time to Response in Months Median (range)” value (hematologic malignancies; iNHL (13 evaluable)) was 1.8 (1.7, 2.8) Months. The “Median Time to Rsp in Months (Range)” value (hematologic malignancies; iNHL (T/E 26/19)) was 1.8 (1.7-4.1) Months, the responses (hematologic malignancies; iNHL) was 1/2 and the “doses that increasingly suppress PI3K-γ” value (PI3K γ) was at least 25 mg BID. For the same compound, the “sensitivity in cellular growth inhibition assay” value (SU-DHL-4) was “more sensitive; also recorded: nanomolar (nM) range”, the “IC50, cellular growth inhibition” value (OCI-LY-8; OCI-LY-8 (GCB), without BCR crosslinking) was “low micromolar (μM) range” and the “sensitivity in cellular growth inhibition assay” value (OCI-LY-8; OCI-LY-8 with BCR crosslinking) was “nM range”. For the same compound, the “levels of pAKT, pPRAS40 and pS6” value ([5]; 0.001-1 μM, 1 hour, western blot, SU-DHL-6, SU-DHL-4 and Ri-1) was “decrease”, the “time to detection of modulation of phospho-S6” value [5, 8] was over 8 h and the “time to modulation of phospho-AKT and phospho-PRAS40” value [5, 8] was at most 30 min. The growth inhibition [6] was “resistant”, the “sensitivity by MTT assay” value (LPN049 and LPN236) was “sensitive” and the “CD38 positive, CD69 positive and CD38/CD69 double positive circulating CLL cells” value [7] was “significant reductions”.

Source: patent US20170360795A1, “TREATMENT OF CANCERS USING PI3 KINASE ISOFORM MODULATORS” (INFINITY PHARMACEUTICALS, INC., priority 2013, published 2017)
